Data set [1] is described as follows: Example 5: renal function-related safety, changes in eGFR in the phase 3 trials of Examples 1 to 3. The format is in vivo, human. More on the design: eGFR, change from baseline: unit not given here. As to conditions: for eGFR: in mL/min/1.73m2 (unit assumed). An excerpt:
In phase 3 clinical trials of Examples 1 to 3, the changes in eGFR as an indicator of renal function-related safety were confirmed.

Data set [2] can be described thus: Example 7: SD rats treated with streptozotocin (diabetic nephropathy model), oral once a day for 12 weeks: urinary albumin, GS score, TA score. The format is in vivo. Here is the method:
Accordingly, 60 mg/kg of streptozotocin was administered intravenously to the SD rats and used as an animal model of diabetic nephropathy.

The mark [3] stands for this setting: Week 6, Example 2 (combination therapy with metformin).
Where [4] appears, read: Week 6, Example 3 (combination therapy with metformin/gemigliptin).
The mark [5] stands for this setting: Week 12, Example 2 (combination therapy with metformin).
[6] abbreviates: Week 12, Example 3 (combination therapy with metformin/gemigliptin).
[7] abbreviates: Week 18, Example 2 (combination therapy with metformin).
The mark [8] stands for this setting: Week 18, Example 3 (combination therapy with metformin/gemigliptin).
Setting [9] is: Week 24, Example 2 (combination therapy with metformin).
[10] abbreviates: Week 24, Example 3 (combination therapy with metformin/gemigliptin).
The mark [11] stands for this setting: week 6, Example 2 (combination therapy with metformin).
Setting [12] is: week 6, Example 3 (combination therapy with metformin/gemigliptin).
Where [13] appears, read: week 12, Example 2 (combination therapy with metformin).
The mark [14] stands for this setting: week 12, Example 3 (combination therapy with metformin/gemigliptin).
Where [15] appears, read: week 18, Example 2 (combination therapy with metformin).
[16] abbreviates: week 18, Example 3 (combination therapy with metformin/gemigliptin).
Setting [17] is: week 24, Example 2 (combination therapy with metformin).
[18] abbreviates: week 24, Example 3 (combination therapy with metformin/gemigliptin).

`CCOc1ccc(Cc2cc([C@@H]3O[C@H](CO)[C@@H](O)[C@H](O)[C@H]3O)ccc2Cl)cc1` [Dapagliflozin, reference compound]: the eGFR in data set [1] (setting [3]) turned out to be 92.123; in data set [1] (setting [4]), 90.5384; in data set [1] (setting [5]), 92.274; in data set [1] (setting [6]) it was 89.8198; in data set [1] (setting [7]), 94.828; in data set [1] (setting [8]) it was 90.9546. The eGFR in data set [1] (setting [9]) came to 93.739; in data set [1] (setting [10]), 91.6344. The “eGFR, change from baseline” value was −1.908 in data set [1] (setting [11]); −1.1439 in data set [1] (setting [12]); −1.559 in data set [1] (setting [13]); −1.7177 in data set [1] (setting [14]); 0.897 in data set [1] (setting [15]); 0.0571 in data set [1] (setting [16]). Also, the “eGFR, change from baseline” value is recorded as −0.193 in data set [1] (setting [17]) and 0.5790 in data set [1] (setting [18]).

For the compound `OC[C@H]1O[C@@H](c2cc(Cc3ccc(C4CC4)cc3)c(Cl)c3c2CCO3)[C@H](O)[C@@H](O)[C@@H]1O` [Enavogliflozin, (2S,3R,4R,5S,6R)-2-(7-chloro-6 (4-cyclopropylbenzyl)-2,3-dihydrobenzofuran-4-yl)-6-(hydroxymethyl)tetrahydro-2H-pyran-3,4,5-triol], the eGFR in data set [1] (Week 6, Example 1 (monotherapy)) is on record as 88.464; in data set [1] (setting [3]), 88.574; in data set [1] (setting [4]), 89.3847; in data set [1] (Week 12, Example 1 (monotherapy)), 90.142; in data set [1] (setting [5]), 90.566; in data set [1] (setting [6]), 92.0995. The eGFR came out at 91.088 in data set [1] (Week 18, Example 1 (monotherapy)); 88.185 in data set [1] (setting [7]); 89.9269 in data set [1] (setting [8]); 91.387 in data set [1] (Week 24, Example 1 (monotherapy)); 88.056 in data set [1] (setting [9]); 91.9246 in data set [1] (setting [10]). Moreover, the “Change in eGFR (renal function-related safety)” value in data set [1] (phase 3 trials of Examples 1 to 3) was “no significant change in eGFR”. Also, the “eGFR, change from baseline” value is −0.845 in data set [1] (week 6, Example 1 (monotherapy)); 0.425 in data set [1] (setting [11]); 1.9291 in data set [1] (setting [12]); 1.208 in data set [1] (week 12, Example 1 (monotherapy)); 2.488 in data set [1] (setting [13]); 0.9308 in data set [1] (setting [14]). For the same compound, the “eGFR, change from baseline” value in data set [1] (week 18, Example 1 (monotherapy)) was 2.072; in data set [1] (setting [15]), 0.105; in data set [1] (setting [16]), −1.3048; in data set [1] (week 24, Example 1 (monotherapy)) it was 2.371; in data set [1] (setting [17]), −0.024; in data set [1] (setting [18]) it was 0.7726. Moreover, the “Reduction of proteinuria compared with other SGLT2 inhibitors” value in data set [2] (same dose groups (1 mg/kg)) is given as “most excellent effect in reducing proteinuria”. Besides, in data set [2] (week 12), the “TA score (tubular atrophy)” value is given as “significant dose-dependent decrease in tubular atrophy”. Moreover, the “GS score (glomerulosclerosis)” value in data set [2] (week 12, all enavogliflozin-administered groups) is “trend toward a decrease in the GS score”. The “Urinary albumin concentration (proteinuria)” value in data set [2] (weeks 4, 8 and 12) was “dose-dependent decrease in proteinuria”.

For the origin of these results see patent US20260130933A1, “PHARMACEUTICAL COMPOSITION FOR PREVENTION OR TREATMENT OF NEPHROPATHY AND/OR DIABETES MELLITUS, COMPRISING ENAVOGLIFLOZIN” (DAEWOONG PHARMACEUTICAL CO., LTD., priority 2022, published 2026).
